# Columns and labels:
# Format in all cases: cell-based
# [1] = test system: human keratinocytes; assay: 3H choline incorporation into phospholipids of keratinocytes; conditions: Homo sapiens, Keratinocyte, 48 hours, * statistically significant effects, read-out: 3H choline incorporated into cellular phospholipids
# Experimental: (§1) Human keratinocytes, isolated from neonatal foreskin by trypsin treatment were grown in Dulbecco Modification Eagle (DME) Hams F12 (3:1) medium/5% fetal calf serum in the presence of mitomycin C treated 3T3 mouse fibroblasts for establishing dividing keratinocyte colonies. Cells were grown under the above condition until their second passage and kept frozen for future use. Frozen second passage keratinocytes were thawed and plated into the above medium and grown for five days. On day 5, when the cells were 70-80% confluent, they were trypsinized and plated in the serum-free medium for the various experiments.
# Choline acts as an essential nutrient for the cellular phospholipid biosynthesis of keratinocytes. Choline present in the medium is used up by the cells for phospholipid biosynthesis. If TCC provides choline for the cells it will complete with the choline in the medium for incorporation into cellular phospholipids. When cells are incubated with ^3 H-labelled choline, its incorporation into phospholipids will be decreased by the presence of unlabelled choline or TCC in the medium.
# […] The wells were washed, total lipids were extracted using Bleigh Dyer method as described above and the total counts in the chloroform phase was determined. To ascertain that the counts are present only in the phospholipid fraction, the amount of ^3 H choline incorporated into the different lipid fractions were quantitated by running TLC of the fractions in the above solvent system, and the amount of radioactivity in the phospholipid fraction (origin) was quantitated using BioScan plate reader. The cpm of ^3 H choline was plotted against the amount of cold choline or TCC added in the medium to assess the competition between choline supplied from TCC with ^3 H choline.
# The amount of ^3 H choline incorporated into cellular phospholipids was determined and expressed as % of controls.
# [2] = Signs of cytotoxicity in / tolerance by keratinocytes; conditions: human, 24 hours exposure, read-out: concentration at which cells showed signs of cytotoxicity
# Experimental: Effects of 24 hours exposure to 0.1 μM to 10 mM of citric acid, choline or the different citrate esters on keratinocyte DNA synthesis are shown in table 1. Rate of DNA synthesis calculated as cpm ^3 H thymidine incorporated into cellular DNA/μg of cell protein is expressed as % of control (no addition controls) ±SD. The actual amount of cpm/μg protein of the control is 1103 ±88.
# [3] = test system: human keratinocytes; assay: DNA synthesis (3H thymidine incorporation) in keratinocytes in choline-free medium; conditions: Keratinocyte
# Experimental: as §1
# The incorporation of ^3 H-thymidine by cultured keratinocytes was used as an assay of keratinocyte proliferation. Thymidine is one of four deoxynucleosides which are the monomeric units of DNA, the universal library of genetic information in the animal kingdom. Prior to cell division of a somatic cell such as a keratinocyte, the complete genome of the cell undergoing cell division is replicated. This involves large scale DNA synthesis by the cell and enables both daughter cells to receive identical copies of the genetic material. When ^3 H-thymidine is included in the culture media of keratinocytes which are synthesizing DNA in preparation for cell division then the labelled nucleoside is incorporated into the newly synthesized DNA. The extent of incorporation of ^3 H-thymidine into a population of cells is proportional to the rate of DNA synthesis by this population of cells and therefore an indication of their cellular proliferation.
# (§2) 4. The medium was aspirated, and the wells washed with 1 ml phosphate-buffered saline. The DNA and proteins of the cells in the plate were then precipitated by adding 1 ml of ice-cold 10% trichloroacetic acid (TCA). The plates were left on ice for 30 minutes to complete the precipitation process. TCA was then aspirated and each well was then washed four times with 5% TCA. The plates were then dried on a filter pad and the cells in the wells were dissolved in 0.5 ml of 0.1N sodium hydroxide. The sodium hydroxide was then neutralized using 0.1N hydrochloric acid and the solution (1 ml total volume) was then transferred to a scintillation vial. 50 μl samples from each vial were used for protein assay using BCA protein assay reagent obtained from Pierce Chemical Company. 8 ml of a scintillation fluid (Ecolume) was added to the rest of the solution in the vial, and the vials were counted in a scintillation counter to determine the amount of radioactivity in each vial. The DNA synthesis rate was then calculated as cpm ^3 H thymidine incorporated into total cellular DNA/microgram of cell protein for each individual well. Mean and standard deviation for each group was also calculated.
# (§3) The aged epidermis may be choline deficient due to the decreased capillary circulation to the skin. To simulate the choline-deficient in vitro system, keratinocytes were plated in complete medium and 48 hours later switched to choline-free medium. The cells were then grown for five days in the choline-free medium with or without addition of different amounts of choline or TCC. To determine whether TCC can provide choline for keratinocyte proliferation under these conditions, on day 5, the amount of ^3 H thymidine incorporation into DNA was determined as in the previous experiment. The protein content of the wells were also quantitated. Both these parameters were expressed as % of control ±SD.
# [4] = test system: human keratinocytes; assay: cells; conditions: Keratinocyte, five days, choline-free medium, ±SD, * statistically significant, read-out: Protein
# Experimental: as §1, §2, §3
SMILES,activity at 10 µM [1] [%],activity at 100 µM [1] [%],activity at 1000 µM [1] [%],MCC at 24 h [2] [mM],"activity at 1 µM ([3]; 120 h, 1 μM, five days, choline-free medium, ±SD, * statistically significant) [%]","activity at 10 µM ([3]; 120 h, 10 μM, five days, choline-free medium, ±SD, * statistically significant) [%]","activity at 100 µM ([3]; 120 h, 100 μM, five days, choline-free medium, ±SD, * statistically significant) [%]","activity at 1000 µM ([3]; 120 h, 1000 μM, five days, choline-free medium, ±SD, * statistically significant) [%]","activity at 10000 µM ([3]; 120 h, 10,000 μM, five days, choline-free medium, ±SD, * statistically significant) [%]",minimal effective concentration ([3]; read-out: lowest concentration that increased proliferation (both DNA synthesis and protein content)) [µM],"activity at 1 µM ([4]; 120 h, 1 μM) [%]","activity at 10 µM ([4]; 120 h, 10 μM) [%]","activity at 100 µM ([4]; 120 h, 100 μM) [%]","activity at 1000 µM ([4]; 120 h, 1000 μM) [%]","activity at 10000 µM ([4]; 120 h, 10,000 μM) [%]"
"CCOC(=O)CC(O)(CC(=O)OCC)C(=O)OCC [TEC, triethylcitrate]",114 ± 9.9,89.2 ± 1.9,82.8 ± 22,≥ 1,–,–,–,–,–,–,–,–,–,–,–
"C[N+](C)(C)CCO [Choline, choline]",61.6 ± 7.8,36.9 ± 1.6,10.8 ± 5.5,–,261 ± 5.6,313 ± 11.4,315 ± 29.3,297 ± 11.3,270 ± 11.2,1,197 ± 21.8,264 ± 50,276 ± 52,229 ± 29,209 ± 13.7
"CCCCOC(=O)CC(O)(CC(=O)OCCCC)C(=O)OCCCC [TBC, tributylcitrate]",81.1 ± 7,121 ± 6.7,81.1 ± 12,≥ 1,–,–,–,–,–,–,–,–,–,–,–

# Reference: US5571518A, “Cosmetic compositions containing tricholine citrate” (priority 1995, dated 1996)
